Reference: patent publication US20220288004A1, “TREATMENT AND PREVENTION OF AGING RELATED-DISEASE AND/OR AGING BY THE INHIBITION OF SPHINGOLIPIDS” (ECOLE POLYTECHNIQUE FEDERALE DE LAUSANNE (EPFL), priority 2019, published 2022)

Columns and labels:
Assay type in all cases: in vivo, mouse
[1] = tested on: aged C57Bl/6JRj mice; experiment: Transplantation of MuSCs from myriocin treated donors into cardiotoxin-injured aged C57Bl/6JRj recipients
Excerpt: Decline in tissue regenerative potential is a major hallmark of mammalian aging, including skeletal muscle. It was next asked the question whether myriocin treatment induces functional improvement of MuSCs, boosting their regenerative capacity. MuSCs from aged mice treated or untreated with myriocin for 5 months were isolated, and transplanted into tibialis anterior (TA) muscles of recipient mice. The recipient mice were either aged (20-month-old) C57Bl/6JRj or aged (1-year-old) mdx mice, a mouse model of Duchenne muscular dystrophy lacking dystrophin protein (FIG. 4a). Before MuSC transplantation, injury was induced by cardiotoxin injection to TA of all recipient mice. […] At both 7 and 14 days after transplantation the inflammatory area was also smaller (FIG. 12a-b) in mdx recipients of MuSCs isolated from myriocin treated mice. […] Thus, transplantation of MuSCs derived from myriocin treated donors induce major morphological improvements following cardiotoxin-induced muscle injury.
To test whether the functional improvement of MuSCs upon myriocin treatment also translates into better muscle function of recipient mice, tests of muscle function were performed before and 7 days after MuSC transplantation.
(§1) Endurance running test. The exercise regimen on a treadmill commenced at a speed of 9 cm/s. As the mice were aged, an inclination of 0 degrees was used. Mice were considered to be exhausted, and removed from the treadmill if they received 7 or more shocks (0.2 mA) per minute for two consecutive minutes. The distance traveled and time before exhaustion were registered as maximal running distance and time.
(§2) Grip strength. Muscle strength was assessed by grip strength test. The grip strength of each mouse was measured on a pulldown grid assembly connected to a grip strength meter (Columbus Instruments). The mouse was drawn along a straight line parallel to the grip, providing peak force. The experiment was repeated three times, and the highest value was included in the analysis.
(§3) Rotarod test. The rotarod test measures muscle strength, coordination, and endurance. Mice were left undisturbed in the room for 30 min. The speed of the rotating cylinder (rotarod) increased from 0 to 40 rpm in 5 min. Each mouse had 3 trials per day for 3 consecutive days. The latency and speed the mouse reached it passive rotation or fall from the rotor was recorded, and the latency and speed of the best trial of the second day is presented.
Cardiotoxin-induced muscle damage and MuSC transplantation. MuSCs were transplanted from donor mice to recipient mice. The donor mice were aged male C57Bl/6JRj mice, whose treatment with myriocin was started at the age of 18 months. The recipient mice were either aged (18-month-old) male C57Bl/6JRj mice or 1-year-old male mdx mice. 50 μL of 20 μM Naje Mossambica mossambica cardiotoxin (Sigma) was injected intramuscularly into the tibialis anterior (TA) muscle of recipient mice before transplantation. 24 h after CTX injection, equal number (1500) of freshly isolated MuSCs from donor mice were injected intramuscularly into the TA muscle. Recipient mice were sacrificed at 7 and 14 days after transplantation.
Histology. TA muscles were harvested from anesthetized mice, and immediately embedded in Thermo Scientific™ Shandon™ Cryomatrix™ and frozen in isopentane, cooled in liquid nitrogen, for 1 min before being transferred to dry ice and stored at −80° C. 8 μm cryosections were incubated in 4% PFA for 15 min, washed three times for 10 min with PBS, incubated for antigen retrieval in pH 6.0 citrate buffer for 10 min at 95° C. (for PAX7 antibody), counterstained with DAPI, laminin (1:200, Sigma), PAX7 (1:200, DSHB, University of Iowa), dystrophin (1:100, Spring Bioscience) or eMyHC (1:50, DSHB, University of Iowa), coupled with Alexa-488 or Alexa-568 fluorochromes (Life Technology) and mounted with Dako Mounting Medium. Microscopy images of fluorescence from muscle fibers were analyzed using the ImageJ software. […]

[2] = tested on: mdx mice; experiment: Myriocin treatment of mdx mice (Duchenne muscular dystrophy model)
Procedure: Next the activity of sphingolipid synthesis was inhibited in a mouse model of Duchenne muscular dystrophy. Mdx, a dystrophin deficient mouse model, was treated with myriocin (0.4 mg/kg/3 times a week intraperitoneally) for 2 months. […] Furthermore, after downhill running, plasma levels of creatine kinase (CK) were lower in myriocin treated mice compared to controls (FIG. 8f).
as §1, §2, §3

[3] = tested on: aged C57Bl/6JRj mice; experiment: Ad libitum locomotion during 10 min in aged mice; settings: myriocin 0.4 mg/kg i.p. 3 times per week, 5 months
Procedure: FIG. 9. Sphingolipid depletion protects against frailty phenotypes. (a) Distance moved in 10 mins. (b) Average velocity during 10 minutes of observation. (c) Glucose tolerance test. (d) Time exploring familiar and novel objects. (e) Recognition index. Aged (18-month-old) C57BL/6JRj mice were treated with intraperitoneal injections of myriocin (MYR) for 5 months @ 0.4 mg/kg/3 times per week.
Human frailty syndrome is characterized by weakness, decreased walking speed, exhaustion, weight loss, and low physical activity. […] Frailty predicts falls in older people. […] In object recognition test, myriocin treated mice spent more exploring both the familiar object and novel object as compared to their DMSO treated counterparts (FIG. 9d). Although this could be partly attributable to the higher physical activity of myriocin treated mice, the treated mice were more interested in the novel than familiar object as compared to untreated mice.

[4] = aged C57Bl/6JRj recipients of MuSCs from myriocin treated donors, 7 days
[5] = aged recipients of MuSCs from myriocin treated mice, 7 days after transplantation, change relative to baseline
[6] = myriocin 0.4 mg/kg 3 times a week intraperitoneally, 2 months

CCCCCCC(=O)CCCCCCC=CCC(O)C(O)C(N)(CO)C(=O)O (stereo not drawn) [myriocin, 2-Amino-3,4-dihydroxy-2-(hydroxymethyl)-14-oxoicos-6-enoic acid]
inflammatory area of TA ([1]; aged C57Bl/6JRj recipients of MuSCs from myriocin treated donors, 7 and 14 days after injury): smaller
count of PAX7+ cells per field and per section [1, 4]: increased count
embryonic myosin heavy chain (eMyHC) positive area [1, 4]: higher
exercise capacity (maximal running distance) [1, 5]: improved
grip strength [1, 5]: improved
latency in rotarod test [1, 5]: increased latency
plasma levels of creatine kinase (CK) ([2]; after downhill running, myriocin 2 months vs controls): lower
grip strength [2, 6]: improved
performance in rotarod test [2, 6]: improved performance
performance in uphill running test [2, 6]: improved performance
ad libitum walking speed (average velocity during 10 minutes) [3]: increased
distance travelled ad libitum during 10 min [3]: longer
